PubChem BioAssay (NCI)
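How tested: cells in 96-well plates exposed to compound for 48 hours at five concentrations. GI50 is the concentration that inhibits growth by half. TGI marks complete inhibition of growth.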

Columns and labels:
Test in all cases: inhibition of tumour cell growth, NCI panel, 48 h
M14 melanoma = test system: M14 melanoma
KM12 colon = test system: KM12 colon
CCRF-CEM leukemia = test system: CCRF-CEM leukemia
HOP-92 NSCLC = test system: HOP-92 NSCLC
OVCAR-5 ovarian = test system: OVCAR-5 ovarian
HT29 colon = test system: HT29 colon
MDA-MB-435 = test system: MDA-MB-435
SK-OV-3 ovarian = test system: SK-OV-3 ovarian
HCT-116 colon = test system: HCT-116 colon
SN12C renal = test system: SN12C renal
MDA-MB-231 breast = test system: MDA-MB-231 breast
CAKI-1 renal = test system: CAKI-1 renal
SF-295 CNS = test system: SF-295 CNS
HS 578T breast = test system: HS 578T breast
HCT-15 colon = test system: HCT-15 colon
A549 NSCLC = test system: A549 NSCLC
786-0 renal = test system: 786-0 renal
HCC-2998 colon = test system: HCC-2998 colon
NCI/ADR-RES ovarian = test system: NCI/ADR-RES ovarian
UACC-257 melanoma = test system: UACC-257 melanoma
IGROV1 ovarian = test system: IGROV1 ovarian
A498 renal = test system: A498 renal
BT-549 breast = test system: BT-549 breast
HOP-62 NSCLC = test system: HOP-62 NSCLC
ACHN renal = test system: ACHN renal
HL-60(TB) leukemia = test system: HL-60(TB) leukemia
OVCAR-3 ovarian = test system: OVCAR-3 ovarian
DU-145 prostate = test system: DU-145 prostate
TK-10 renal = test system: TK-10 renal
UO-31 renal = test system: UO-31 renal
MCF7 breast = test system: MCF7 breast
MALME-3M melanoma = test system: MALME-3M melanoma
SF-539 CNS = test system: SF-539 CNS
SR leukemia = test system: SR leukemia
RXF 393 renal = test system: RXF 393 renal
OVCAR-4 ovarian = test system: OVCAR-4 ovarian
LOX IMVI melanoma = test system: LOX IMVI melanoma
K-562 leukemia = test system: K-562 leukemia
COLO 205 colon = test system: COLO 205 colon
SF-268 CNS = test system: SF-268 CNS
NCI-H522 lung = test system: NCI-H522 lung
SW-620 colon = test system: SW-620 colon
SNB-75 CNS = test system: SNB-75 CNS
SK-MEL-5 melanoma = test system: SK-MEL-5 melanoma
SK-MEL-28 melanoma = test system: SK-MEL-28 melanoma
PC-3 prostate = test system: PC-3 prostate
RPMI-8226 leukemia = test system: RPMI-8226 leukemia
EKVX NSCLC = test system: EKVX NSCLC
T-47D breast = test system: T-47D breast
SNB-19 CNS = test system: SNB-19 CNS
NCI-H23 lung = test system: NCI-H23 lung
MOLT-4 leukemia = test system: MOLT-4 leukemia
U251 CNS = test system: U251 CNS
UACC-62 melanoma = test system: UACC-62 melanoma
OVCAR-8 ovarian = test system: OVCAR-8 ovarian
NCI-H460 lung = test system: NCI-H460 lung
NCI-H226 lung = test system: NCI-H226 lung
SK-MEL-2 melanoma = test system: SK-MEL-2 melanoma

Cc1ccc(-c2nc3nc(-c4ccc(F)cc4)nc(N4CCNCC4)c3o2)cc1 showed a GI50 (M14 melanoma) of 1920 nM, a TGI (M14 melanoma) of 3.79 µM and a GI50 (KM12 colon) of 1880 nM. The TGI (KM12 colon) was 3.61 µM, the GI50 (CCRF-CEM leukemia) was 1910 nM and the TGI (CCRF-CEM leukemia) was 4.74 µM. It also gave a GI50 (HOP-92 NSCLC) of 4.5 µM, a TGI (HOP-92 NSCLC) of 22.6 µM and a GI50 (OVCAR-5 ovarian) of 1970 nM. The TGI (OVCAR-5 ovarian) was 4.54 µM, the GI50 (HT29 colon) was 1860 nM and the TGI (HT29 colon) was 3.93 µM. For the same compound, the GI50 (MDA-MB-435) was 1780 nM, the TGI (MDA-MB-435) was 3.24 µM and the GI50 (SK-OV-3 ovarian) was 18.7 µM. It also gave a TGI (SK-OV-3 ovarian) of 34.4 µM, a GI50 (HCT-116 colon) of 1700 nM and a TGI (HCT-116 colon) of 3.32 µM. For the same compound, the GI50 (SN12C renal) was 5.54 µM, the TGI (SN12C renal) was 19.8 µM and the GI50 (MDA-MB-231 breast) was 1860 nM. The TGI (MDA-MB-231 breast) was 3.63 µM, the GI50 (CAKI-1 renal) was 1550 nM and the TGI (CAKI-1 renal) was 2920 nM. It also gave a GI50 (SF-295 CNS) of 18.3 µM, a TGI (SF-295 CNS) of 33.9 µM and a GI50 (HS 578T breast) of 2060 nM. It also gave a TGI (HS 578T breast) of 5.12 µM, a GI50 (HCT-15 colon) of 1670 nM and a TGI (HCT-15 colon) of 3.38 µM. For the same compound, the GI50 (A549 NSCLC) was 2100 nM, the TGI (A549 NSCLC) was 4.74 µM and the GI50 (786-0 renal) was 1760 nM. For the same compound, the TGI (786-0 renal) was 3.34 µM, the GI50 (HCC-2998 colon) was 4.11 µM and the TGI (HCC-2998 colon) was 15.8 µM. For the same compound, the GI50 (NCI/ADR-RES ovarian) was 2110 nM, the TGI (NCI/ADR-RES ovarian) was 4.47 µM and the GI50 (UACC-257 melanoma) was 18.4 µM. For the same compound, the TGI (UACC-257 melanoma) was 37.6 µM, the GI50 (IGROV1 ovarian) was 1680 nM and the TGI (IGROV1 ovarian) was 3.16 µM. It also gave a GI50 (A498 renal) of 16.1 µM, a TGI (A498 renal) of 30.5 µM and a GI50 (BT-549 breast) of 13.6 µM. The TGI (BT-549 breast) was 30.1 µM, the GI50 (HOP-62 NSCLC) was 16.4 µM and the TGI (HOP-62 NSCLC) was 37.9 µM. The GI50 (ACHN renal) was 1790 nM, the TGI (ACHN renal) was 3.19 µM and the GI50 (HL-60(TB) leukemia) was 1910 nM. For the same compound, the TGI (HL-60(TB) leukemia) was 4.3 µM, the GI50 (OVCAR-3 ovarian) was 1860 nM and the TGI (OVCAR-3 ovarian) was 3.5 µM. For the same compound, the GI50 (DU-145 prostate) was 2600 nM, the TGI (DU-145 prostate) was 6.45 µM and the GI50 (TK-10 renal) was 2070 nM. It also gave a TGI (TK-10 renal) of 6.38 µM, a GI50 (UO-31 renal) of 1460 nM and a TGI (UO-31 renal) of 2790 nM. For the same compound, the GI50 (MCF7 breast) was 1660 nM, the TGI (MCF7 breast) was 3.51 µM and the GI50 (MALME-3M melanoma) was 6.94 µM. For the same compound, the TGI (MALME-3M melanoma) was 19.6 µM, the GI50 (SF-539 CNS) was 1670 nM and the TGI (SF-539 CNS) was 3.12 µM. It also gave a GI50 (SR leukemia) of 323 nM, a TGI (SR leukemia) of 1130 nM and a GI50 (RXF 393 renal) of 10.7 µM. The TGI (RXF 393 renal) was 23.2 µM, the GI50 (OVCAR-4 ovarian) was 1890 nM and the TGI (OVCAR-4 ovarian) was 3.5 µM. The GI50 (LOX IMVI melanoma) was 1660 nM, the TGI (LOX IMVI melanoma) was 3.07 µM and the GI50 (K-562 leukemia) was 1460 nM. The TGI (K-562 leukemia) was 5.44 µM, the GI50 (COLO 205 colon) was 2100 nM and the TGI (COLO 205 colon) was 4.64 µM. It also gave a GI50 (SF-268 CNS) of 1930 nM, a TGI (SF-268 CNS) of 4.35 µM and a GI50 (NCI-H522 lung) of 2180 nM. The TGI (NCI-H522 lung) was 6.19 µM, the GI50 (SW-620 colon) was 1760 nM and the TGI (SW-620 colon) was 3.61 µM. It also gave a GI50 (SNB-75 CNS) of 11.6 µM, a TGI (SNB-75 CNS) of 23.9 µM and a GI50 (SK-MEL-5 melanoma) of 15.4 µM. For the same compound, the TGI (SK-MEL-5 melanoma) was 29 µM, the GI50 (SK-MEL-28 melanoma) was 14.9 µM and the TGI (SK-MEL-28 melanoma) was 28.7 µM. It also gave a GI50 (PC-3 prostate) of 1910 nM, a TGI (PC-3 prostate) of 4.69 µM and a GI50 (RPMI-8226 leukemia) of 2360 nM. For the same compound, the TGI (RPMI-8226 leukemia) was 5.49 µM, the GI50 (EKVX NSCLC) was 4.53 µM and the TGI (EKVX NSCLC) was 17.3 µM. It also gave a GI50 (T-47D breast) of 2300 nM, a TGI (T-47D breast) of 6.92 µM and a GI50 (SNB-19 CNS) of 5.97 µM. The TGI (SNB-19 CNS) was 19.8 µM, the GI50 (NCI-H23 lung) was 12 µM and the TGI (NCI-H23 lung) was 27.6 µM. The GI50 (MOLT-4 leukemia) was 2100 nM, the TGI (MOLT-4 leukemia) was 4.42 µM and the GI50 (U251 CNS) was 1950 nM. For the same compound, the TGI (U251 CNS) was 4.03 µM, the GI50 (UACC-62 melanoma) was 15.4 µM and the TGI (UACC-62 melanoma) was 29.9 µM. The GI50 (OVCAR-8 ovarian) was 2350 nM, the TGI (OVCAR-8 ovarian) was 5.82 µM and the GI50 (NCI-H460 lung) was 1940 nM. It also gave a TGI (NCI-H460 lung) of 3.77 µM, a GI50 (NCI-H226 lung) of 10.6 µM and a TGI (NCI-H226 lung) of 26.7 µM. For the same compound, the GI50 (SK-MEL-2 melanoma) was 14.9 µM and the TGI (SK-MEL-2 melanoma) was 35.4 µM.
